Measurements taken from patent publication US20260109707A1, “HETEROBIFUNCTIONAL COMPOUNDS AND METHODS OF TREATING DISEASE” (Halda Therapeutics OpCo. Inc., priority 2022, published 2026).

Assays:
T47D cells = assay: Cellular growth inhibition assay for T47D cells (CellTiter-Glo, 72 hours); assay type: cell-based, human; settings: Homo sapiens, T47D, 72 h, 72 hours treatment
Summary of the method: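 Luminescence from CellTiter-Glo 2.0 after 72 h of compound exposure gives the viability signal. Cells grew in insulin-supplemented (0.2 units/mL) DMEM with 10% FBS and were treated one day after seeding at 0.5% DMSO. GI50 values come from four-parameter nonlinear regression.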

[1] = Cellular growth inhibition assay, T-Rex 293 SC cells with doxycycline (CellTiter-Glo, 72 hours); assay type: cell-based; settings: T-Rex 293 SC cells with doxycycline (increased progesterone receptor isoform B)
Experimental: (§1) The following types of cells were prepared for this experiment: (i) a T-Rex 293 cell line having increased expression of progesterone receptor isoform B protein due to exposure to doxycycline and (ii) a T-Rex 293 cell line lacking increased expression of progesterone receptor isoform B protein. Ability of the test compounds to inhibit proliferation of the foregoing cell types was evaluated according to the procedures set forth below.
(§2) The doxycycline-inducible progesterone receptor isoform B protein expressing cell line was established using the following protocol: T-Rex 293 cells were purchased from Invitrogen (Cat #R71007) and transfected using Lipofectamine 2000 with the wild-type progesterone receptor B protein sequence cloned into the pcDNA4/TO vector. Transfected cells were selected using 400 μg/mL Zeocin (Invitrogen Cat #R25001). Following selection, single clones were raised and maintained in Dulbecco's Modified Eagle Medium (DMEM) supplemented with 10% w/w Tetracycline-free fetal bovine serum (FBS) and 250 μg/mL Zeocin. Clones were analyzed for expression of progesterone receptor isoform B protein in the presence and absence of 10 ng/mL doxycycline (Sigma Cat #D9891), and a single doxycycline-inducible clone (hereinafter “SC”) was selected for use in downstream assays.
(§3) The SC cells were seeded on poly-D-lysine coated, black clear-bottom 384-well plates at 2500/well, in 25 μL Phenol Red Free Dulbecco's Modified Eagle Medium (DMEM) supplemented with 10% w/w charcoal-dextran treated fetal bovine serum (FBS) and 1% w/w pen-strep, with or without 10 ng/mL doxycycline. Pen-Strep is a commercially available mixture of penicillin G and streptomycin, which is used in mammalian cell culture media to prevent bacterial contamination. Phenol Red Free Dulbecco's Modified Eagle Medium (DMEM) supplemented with 10% w/w charcoal-dextran treated fetal bovine serum (FBS) and 1% w/w pen-strep, with or without 10 ng/mL doxycycline is herein referred to as Treatment Medium. Following seeding of cells in the plates, the plates were spun at 300×g for 30 seconds, then equilibrated to room temperature for 30 minutes, and then deposited in a humidified tissue culture incubator maintained at 37° C. with 5% CO2.
(§4) At 24 hours after seeding of the cells, dilutions of test compound were prepared in DMSO and dissolved in Treatment Medium, to achieve a final DMSO concentration of 0.5% w/w, thereby providing the Test Compound Solution. A 25 μL aliquot of the Test Compound Solution was added to cells in the well plates. An equal volume of a solution containing DMSO and Treatment Medium was used as a negative control. Following treatment of cells with Test Compound Solution or said equal volume of a solution containing DMSO and Treatment Medium, the plates were spun at 300×g for 30 seconds, and then left in an incubator for 72 hours.
(§5) At the end of the treatment duration, cell viability was quantified with CellTiter-Glo 2.0 reagent (Promega Cat #G9243). For this purpose, plates were equilibrated to room temperature for 30 minutes, and then 25 μL of CellTiter-Glo 2.0 reagent was added to cells in the plate wells. Plates were then agitated on a shaker for two minutes at 500 rpm and subsequently incubated at room temperature for 10 minutes. Following incubation, the plates were spun at 3000×g for 30 seconds, then sealed with an optical adhesive cover, and luminescence readings were measured with an EnVision Plate Reader (Perkin Elmer).
(§6) Data was normalized using zero luminescence for baseline. A four-parameter non-linear regression curve fit was applied to dose-response data in GraphPad Prism data analysis software to determine the half-maximal growth inhibitory concentration (GI50) for each test compound.

[2] = tested on: T-Rex 293 cell line SC cells lacking increased expression of progesterone receptor isoform B protein; assay: Cellular growth inhibition assay, T-Rex 293 SC cells without doxycycline (CellTiter-Glo, 72 hours); assay type: cell-based; settings: T-Rex 293 SC cells not exposed to doxycycline
Experimental: as §1, §2, §3, §4, §5, §6

GI50 (T47D cells) | Structure (SMILES) | GI50 [1] | GI50 [2]
< 500 nM | CCNC(=O)C[C@@H]1N=C(c2ccc(OCC3CN(c4ccc(C(=O)N[C@H]5CC[C@H](Oc6ccc(C#N)c(Cl)c6)CC5)nn4)C3)cc2)c2c(sc(C)c2C)-n2c(C)nnc21 [I-29] | – | –
500 to 1500 nM | CCNC(=O)C[C@@H]1N=C(c2ccc(CC3CCN(c4ccc(C(=O)N[C@H]5CC[C@H](Oc6ccc(C#N)c(Cl)c6)CC5)nn4)CC3)cc2)c2c(sc(C)c2C)-n2c(C)nnc21 [I-20] | < 500 nM | 500 to 1500 nM
< 500 nM | CCNC(=O)C[C@@H]1N=C(c2ccc(N3CC4(C3)CN(c3ccc(C(=O)N[C@H]5CC[C@H](Oc6ccc(C#N)c(Cl)c6)CC5)nn3)C4)cc2)c2c(sc(C)c2C)-n2c(C)nnc21 [I-24] | < 500 nM | 500 to 1500 nM

Continued, molecule first:

Structure (SMILES) | GI50 (T47D cells) | GI50 [1] | GI50 [2]
CCNC(=O)C[C@@H]1N=C(c2ccc(OCCOCCOC3CCN(c4ccc(C(=O)N[C@H]5CC[C@H](Oc6ccc(C#N)c(Cl)c6)CC5)nn4)CC3)cc2)c2c(sc(C)c2C)-n2c(C)nnc21 [I-10] | < 500 nM | < 500 nM | < 500 nM
Cc1sc2c(c1C)C(c1ccc(Cl)cc1)=N[C@@H](CC(=O)NCCOCCOCCOC1CCN(c3ccc(C(=O)N[C@H]4CC[C@H](Oc5ccc(C#N)c(Cl)c5)CC4)nn3)CC1)c1nnc(C)n1-2 [I-2, N-[4-(3-chloro-4-cyano-phenoxy)cyclohexyl]-6-[4-[2-[2-[2-[[2-[(9S)-7-(4-chlorophenyl)-4,5,13-trimethyl-3-thia-1,8,11,12-tetrazatricyclo[8.3.0.0^2,6]trideca-2(6),4,7,10,12-pentaen-9-yl]acetyl]amino]ethoxy]ethoxy]ethoxy]-1-piperidyl]pyridazine-3-carboxamide] | 1500 to 3000 nM | < 500 nM | > 3000 nM
Cc1sc2c(c1C)C(c1ccc(Cl)cc1)=N[C@@H](CC(=O)NCCOC1CCN(c3ccc(C(=O)N[C@H]4CC[C@H](Oc5ccc(C#N)c(Cl)c5)CC4)nn3)CC1)c1nnc(C)n1-2 [I-1, N-[4-(3-chloro-4-cyano-phenoxy)cyclohexyl]-6-[4-[2-[[2-[(9S)-7-(4-chlorophenyl)-4,5,13-trimethyl-3-thia-1,8,11,12-tetrazatricyclo[8.3.0.0^2,6]trideca-2(6),4,7,10,12-pentaen-9-yl]acetyl]amino]ethoxy]-1-piperidyl]pyridazine-3-carboxamide] | < 500 nM | < 500 nM | < 500 nM
CCNC(=O)C[C@@H]1N=C(c2ccc(OCCOC3CCN(c4ccc(C(=O)N[C@H]5CC[C@H](Oc6ccc(C#N)c(Cl)c6)CC5)nn4)CC3)cc2)c2c(sc(C)c2C)-n2c(C)nnc21 [I-8] | < 500 nM | < 500 nM | < 500 nM
CCNC(=O)C[C@@H]1N=C(c2ccc(OCCCN(C)c3ccc(C(=O)N[C@H]4CC[C@H](Oc5ccc(C#N)c(Cl)c5)CC4)nn3)cc2)c2c(sc(C)c2C)-n2c(C)nnc21 [I-48] | 500 to 1500 nM | – | –
CCNC(=O)C[C@@H]1N=C(c2ccc(CCCOC3CCN(c4ccc(C(=O)N[C@H]5CC[C@H](Oc6ccc(C#N)c(Cl)c6)CC5)nn4)CC3)cc2)c2c(sc(C)c2C)-n2c(C)nnc21 [I-17] | < 500 nM | – | –
